For orientation: melting point means the temperature of the solid-liquid transition. A word on the IC50: it is the concentration that inhibits the measured activity by half.

Consider 1 molecule from patent US7563800B2, “Substituted pyrazolo[3,4-D]pyrimidines as p38 map kinase inhibitors” (Roche Palo Alto LLC, priority 2006, dated 2009).

SMILES strings stand for the structures.

One data set has as its target T1, p38 MAP kinase (Homo sapiens, UniProt Q16539).
T1 construct: made in house; host or cells: E. coli (co-expressed with SEK-1 and MEKK)
Briefly: p38 (MAP) kinase in vitro assay. It is filed as biochemical. The following applies: transfer of γ-phosphate from γ-33P-ATP to Myelin Basic Protein; phosphorylated recombinant p38 MAP kinase. The procedure:
This example illustrates a p38 (MAP) kinase in vitro assay useful for evaluating the compounds of the invention.
The p38 MAP kinase inhibitory activity of compounds of this invention in vitro was determined by measuring the transfer of the γ-phosphate from γ-^33P-ATP by p-38 kinase to Myelin Basic Protein (MBP), using a minor modification of the method described in Ahn, et al., J. Biol. Chem. 266:4220-4227 (1991).
The phosphorylated form of the recombinant p38 MAP kinase was co-expressed with SEK-1 and MEKK in E. Coli (see, Khokhlatchev, et al., J. Biol. Chem. 272:11057-11062 (1997)) and then purified by affinity chromatography using a Nickel column.
The phosphorylated p38 MAP kinase was diluted in kinase buffer (20 mM 3-(N-morpholino)propanesulfonic acid, pH 7.2, 25 mM β-glycerol phosphate, 5 mM ethylene glycol-bis(beta-aminoethyl ether)-N,N,N′,N′-tetraacetic acid, 1 mM sodium ortho-vanadate, 1 mM dithiothreitol, 40 mM magnesium chloride). Test compound dissolved in DMSO or only DMSO (control) was added and the samples were incubated for 10 min at 30° C. The kinase reaction was initiated by the addition of a substrate cocktail containing MBP and γ-^33P-ATP. […] The phosphorylated MBP was then separated from the residual γ-^33P-ATP using a phosphocellulose membrane (Millipore, Bedfrod, Mass.) and quantitated using a scintillation counter (Packard, Meriden, Conn.).

T1 sequence (Q16539 whole entry): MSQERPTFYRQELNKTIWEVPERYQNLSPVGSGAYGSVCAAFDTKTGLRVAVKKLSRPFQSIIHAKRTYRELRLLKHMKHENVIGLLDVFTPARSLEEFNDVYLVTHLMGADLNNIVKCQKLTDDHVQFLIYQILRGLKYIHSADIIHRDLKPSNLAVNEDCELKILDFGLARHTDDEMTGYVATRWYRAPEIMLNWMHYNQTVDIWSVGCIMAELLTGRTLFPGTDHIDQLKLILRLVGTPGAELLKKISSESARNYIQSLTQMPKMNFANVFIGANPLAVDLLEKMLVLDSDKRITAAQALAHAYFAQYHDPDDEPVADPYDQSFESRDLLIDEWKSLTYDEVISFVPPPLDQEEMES

Molecule `CC(C)Oc1n[nH]c2nc(Oc3ccc(F)cc3F)ncc12` [Compound 1, 6-(2,4-Difluoro-phenoxy)-3-isopropoxy-1H-pyrazolo[3,4-d]pyrimidine] displayed a melting point of 143.7 to 145 °C. Further, on p38 MAP kinase, the IC50 is ~165 nM.
